Legend:
mice = settings: cited from earlier work
APL = settings: clinical data, Blood, 72, 567 - 572 (1988); cited from earlier work
HL-60 = test: Cytotoxicity on HL-60 (viable cell count, Trypan Blue); type: cell-based; settings: human, 5 days
Procedure: After the completion of the incubation, the total cell count was calculated with a Burker-Turk calculation board and the viable cell count was calculated by regarding the cells stained with Trypan Blue as the dead ones. Thus ID₅₀ and LD₅₀ were determined. Further, a cytospin slide was prepared and the morphology of the cells was observed by the May-Giemsa staining method.

cells of APL patients = test: Ability to induce differentiation of cells of APL patients; type: cell-based, human
Procedure: To illustrate the usefulness of the compound of the present invention as a differentiation inducer, a test example on the effects of the compound of the present invention on leukemic cells of APL patients and various cultured human leukemic cell lites will be given. The backgrounds of the patients providing the bloods employed in the test are as follows.
The cells samples from APL patients were adjusted to an initial cell count of 1 × 10⁶ cells/ml and incubated in the above-mentioned IMDM medium containing 10% of fetal calf serum for 5 days under the addition of the compound (I) or ATRA (10⁻⁶ to 10⁻⁸ mol/1), followed by the same evaluation as the one effected in the case of HL-60. Further, the ratio of mature cells to all the cells was determined in accordance with the following formula and taken as an indication for the comparison of the ability to induce differentiation: [formula]

[1] = Acute toxicity test, single dose, SD rats; settings: in vivo, Rat (SD)
Procedure: (§1) By using 5 female and 5 male SD rats and ICR mice aged 7 to 8 weeks, the toxicities of the compound of the present invention were tested through oral, intramuscular, subcutaneous and intraperitoneal administrations each in a single dose (medium: 5% gum arabic).

[2] = Acute toxicity test, single dose, ICR mice; settings: in vivo, Mouse (ICR)
Procedure: as §1

mouse papilloma = settings: cited from earlier work
[3] = female, ♀, oral, medium 5% gum arabic, read-out: LD₅₀ Oral
[4] = female, ip, ♀, intraperitoneal, read-out: LD₅₀ Intraperitoneal
[5] = female, sc, ♀, subcutaneous, read-out: LD₅₀ Subcutaneous
[6] = male, ♂, oral, medium 5% gum arabic, read-out: LD₅₀ Oral
[7] = male, im, ♂, intramuscular, read-out: LD₅₀ Intramuscular
[8] = male, ip, ♂, intraperitoneal, read-out: LD₅₀ Intraperitoneal
[9] = male, sc, ♂, subcutaneous, read-out: LD₅₀ Subcutaneous

SMILES: CC1=C(/C=C/C(C)=C/C=C/C(C)=C/C(=O)O)C(C)(C)CCC1 [ATRA, all-trans-retinoic acid, reference compound]
- hypervitaminosis A (depilation, reduction in body weight) (mice): suffered from hypervitaminosis A including depilation and reduction in body weight
- healing of APL patients (APL): about 100%
- ratio of the dead cells stained with Trypan Blue (HL-60): ≤ 10%

SMILES: CC(C)=CCC/C(C)=C/CC/C(C)=C/C=C/C(C)=C/C(=O)O [compound (I), (2E,4E,6E,10E)-3,7,11,15-tetramethyl-2,4,6,10,14-hexadecapentaenoic acid]
- hypervitaminosis A (depilation, reduction in body weight) (mice): did not suffer from such a symptom
- effect of inducing differentiation (cells of APL patients; 5 days incubation, 10⁻⁶ to 10⁻⁸ mol/l): exhibited an effect of inducing differentiation similar to ATRA
- efficacy on cells having a fused gene PML-RAR-α (cells of APL patients; PML/RAR-α (+)): effective in all of the cases
- LD50 [1, 3]: 2850 mg/kg
- LD50 [1, 4]: 680 mg/kg
- LD50 [1, 5]: 2800 mg/kg
- LD50 [1, 6]: 2400 mg/kg
- LD50 [1, 7]: 830 mg/kg
- LD50 [1, 8]: 731 mg/kg
- LD50 [1, 9]: 2500 mg/kg
- ratio of the dead cells stained with Trypan Blue (HL-60): ≤ 10%
- LD50 [2, 3]: > 6250 mg/kg
- LD50 ([2]; female, im, ♀, intramuscular, read-out: LD₅₀ Intramuscular): > 2000 mg/kg
- LD50 [2, 4]: 1.1 mg/kg
- LD50 [2, 5]: > 4 mg/kg
- LD50 [2, 6]: > 6250 mg/kg
- LD50 [2, 7]: 2 mg/kg
- LD50 [2, 8]: 970 mg/kg
- LD50 [2, 9]: > 4000 mg/kg
- antitumor effect (mouse papilloma): exerts an antitumor effect
